Test results as given in patent US6020340A, “Imidazopyridines” (Byk Gulden Lomberg Chemische Fabrik GmbH, priority 1996, dated 2000).

What follows are molecules tested on PDE IV (assay: Inhibition of PDE IV activity (method of Bauer and Schwabe, adapted to microtiter plates)).
Assay type: biochemical

Compared with `COc1ccc(-c2nc3ncccc3[nH]2)c2cc(C(C)C)oc12` [Compound 1, 2-[7-Methoxy-2-(1-methylethyl)benzofuran-4-yl]imidazo[4,5-b]pyridine], `CC(C)c1cc2c(-c3nc4ncccc4[nH]3)ccc(OC(F)F)c2o1` [Compound 2, 2-[7-Difluoromethoxy-2(1-methylethyl)benzofuran-4yl]imidazo[4,5-b]pyridine] is higher in “Inhibition of PDE IV activity, -log IC50” value: 7.41 for the first, 8.14 for the second.

First: COc1ccc(-c2nc3ncccc3[nH]2)c2c1OC1(C=C2)CCCC1 [Compound 3, 2-[8-Methoxy-2,2-tetramethylene-1[2H]chromen-5-yl]imidazo[4,5-b]pyridine]
Second: COc1ccc(-c2nc3cnccc3[nH]2)c2c1OC1(C=C2)CCCC1 [Compound 5, 2-[8-Methoxy-2,2-tetramethylene-1[2H]chromen-5-yl]imidazo[4,5-c]pyridine]
The “Inhibition of PDE IV activity, -log IC50” value of the first is lower: 5.83 for the first, 6.76 for the second.

Going from `COc1ccc(-c2nc3cnccc3[nH]2)c2cc(C3CCCC3)oc12` [Compound 4, 2-(2Cyclopentyl-7-methoxy-benzofuran-4-yl)imidazo[4,5-c]pyridine] to `COc1ccc(-c2nc3cnccc3[nH]2)c2cc(C(C)C)oc12` [Compound 7], the “Inhibition of PDE IV activity, -log IC50” value rises from 7.74 to 8.09.

For `CC(C)c1cc2c(-c3nc4cnccc4[nH]3)ccc(OC(F)F)c2o1` [Compound 6, 2-[7-Difluoromethoxy-2-(1-methylethyl)benzofuran-4-yl]imidazo[4,5-c]pyridine], the “Inhibition of PDE IV activity, -log IC50” value was 8.38.
